Test results taken from patent EP2565188A1, “Novel photoactivatable paclitaxel derivatives and uses thereof, in particular in cellbiology and cancer treatment” (Max-Planck-Gesellschaft zur Förderung der Wissenschaften …, priority 2011, dated 2013).

What was measured:
[1] = Photocleavage study: irradiation at 360 nm, composition by HPLC; assay type: physicochemical; conditions: 1 mM, 5% water in acetonitril, share of the labelled species
Description: The photolysis of the compounds 2'-Nvoc-PTX and 2',7-bisNvoc-PTX was followed by UV and HPLC analysis of the correspondent solutions after exposure to light at λmax = 360 nm (2.7 mW/cm^2).
3 ml of a 1 mM solution of caged PTX in acetonitrile containing 5% water was placed into a quartz cuvette and was exposed at 360 nm for different irradiation times. Aliquots of 50 µl were taken after various irradiation times, and each aliquot was splitted in two parts. 20 µl were diluted to 400 µl to obtain 50 µM solution for UV-Vis characterisation. The 30 µl left from each aliquot were injected into the HPLC (20 µl loop, analytical column) in order to estimate the composition of the irradiated mixture.
Photocleavage of compound 2',7-bisNvoc-PTX was expected to yield the mono-substituted species 2'-Nvoc-PTX and 7-Nvoc-PTX as intermediates that can be further photolyzed to afford free PTX. In fact, HPLC analysis (Fig. 1) confirmed the presence of 2'-Nvoc-PTX (retention time, r.t.= 16.7 min) and 7-Nvoc-PTX (r.t. = 18.2 min) together with the starting compound 2',7-bisNvoc-PTX (r.t. = 21.3 min) and the fully deprotected PTX (r.t. = 11.1 min). The ratio of these compounds within the composition of the irradiated mixture changes with the exposure dose. Fig. 2 and Table B below show the compositional evolution of the mixture with increasing irradiation time as obtained by HPLC analysis. […] However, the influence of other structural factors in the photolytic mechanism cannot be ruled out. Compound 7-Nvoc-PTX could also be isolated from the irradiated mixture in milligram scale. Table B. Molar composition of a solution of 2',7-bisNvoc-PTX (1 mM, 5% water in acetonitril) after different irradiation times, as determined by analysis of HPLC graphs (Fig. 2)

[2] = Solubility test of 10 µM solutions in 1:1000 DMSO:PIPES buffer; assay type: physicochemical
Description: 10 mM solutions of PTX derivatives in DMSO were prepared. All substances were soluble in DMSO at this concentration. 10 µM solutions of were obtained by 1:1000 dilution of the stock solution into 80 mM PIPES buffer pH 6.8, containing 2 mM MgCl2 and 1 mM EGTA. Table A: solubility test of 10 µM solutions of PTX derivatives in 1:1000 DMSO:PIPES buffer

HeLa cells [3] = assay type: cell-based, Human; conditions: 48 h
Description: (§1) Human cervix carcinoma cells, HeLa cells (#ACC57, DMSZ, Germany), were cultured in DMEM medium (Invitrogen) supplemented with 10% fetal calf serum (FCS, Gibco) in a humidified incubator at 37°C/5%CO2.
In order to evaluate the bioactivity of the caged PCT derivatives, their cytotoxicity was tested in vitro using HeLa cells. Cells were incubated with PTX and caged PTX derivatives at concentrations between 0.01 and 10 µM.
The effect of PTX and derivatives on cell vitality was measured in a combined assay determining cytotoxicity and cell number by propidium iodide (PI) staining. HeLa cells (2x10^4 cells/well) were diluted in cell culture medium (DMEM, 10 % FCS) and seeded in 96 well-plates (black plate, clear bottom, corning, Amsterdam, Netherlands). The culture medium was replaced after ~16h by compound supplemented medium (200 µL, DMEM, 10 % FCS, 1 % DMSO) or medium without compound (DMEM, 10 % FCS, 1 % DMSO) as a specific control. After 48 h, dead cells with permeable cell membranes were stained with PI ([…], 15 min at 37°C, 5% CO2) and the PI fluorescence intensity was measured with a fluorescence plate reader (excitation wavelength 530 nm, emission wavelength 620 nm, Tecan Infinite M1000, Austria). Subsequently, the cells were lysed with 2% Triton X-100 diluted in DMEM (0.3% Triton X-100 per well, 15 min at 37°C, 5% CO2 and the PI fluorescence was measured again. The vitality of the cells was calculated by the ratio of dead cells (DC) before lyses and the total cell number (TCN) after lyses (1-DC/TCN).

HeLa cells [4] = test: Live cell imaging of the microtubule network (Tubulin Tracker / DRAQ5, CLSM); assay type: cell-based, Human; conditions: 24 h
Description: as §1
In order to visualize the influence of the PTX derivatives in the microtubule network of the cell, a live cell microscopy analysis of HeLa cells after incubation with 10 µM PTX derivatives for 24 hours was performed.
Specifically, microtubules and nuclei of HeLa cells were fluorescently stained with Tubulin Tracker (Invitrogen) and DRAQ5 (biostatus, United Kingdom) respectively, and imaged by a Leica TCS SP5 confocal laser scanning microscopy (CLSM). 30x10^4 HeLa cells were seeded in 8-well chamber slides (Lab-Tek, nunc, Germany) and the culture medium was replaced after ~16 h by compound supplemented medium (250 µL, DMEM, 10% FCS, 1% DMSO) or medium without compound (DMEM, 10% FCS, 1% DMSO) as a specific control. After 24h, cells were carefully washed with Hank's Buffered Saline Solution (HBSS, with Ca^2+ and Mg^2+, Invitrogen) and the buffer was replaced by a staining solution containing 250 nM Tubulin Tracker (Invitrogen) and 5 µM DRAQ5. The cells were stained for 30 min at 37°C/5% CO2 in a humidified incubator. The staining solution was replaced by HBSS and the cells were directly imaged with a 100x plan apochromat (1.4 NA) oil immersion objective on the CLSM system equipped with a CO2 incubator and a temperature control. Tubulin Tracker was excited with an argon laser (488 nm) and the emission was detected by 500-580 nm. DRAQ5 was excited with a HeNe laser (633 nm) and the emission was detected by 650-730 nm. The images have a voxel height and width of 90 nm. Bright field images grabbed with an Olympus IX-70 inverted microscope with a 20x phase contrast objective. Image processing performed with Leica LAS AF lite and ImageJ (Fiji).

CC(=O)O[C@H]1C(=O)[C@@]2(C)[C@H]([C@H](OC(=O)c3ccccc3)[C@]3(O)C[C@H](OC(=O)[C@H](O)[C@@H](NC(=O)c4ccccc4)c4ccccc4)C(C)=C1C3(C)C)[C@]1(OC(C)=O)CO[C@@H]1C[C@@H]2O [PTX, Paclitaxel]
Molar composition of a solution of 2',7-bisNvoc-PTX after irradiation ([1]; 360 nm (2.7 mW/cm^2), irradiation time 0 min): 0% | Molar composition of a solution of 2',7-bisNvoc-PTX after irradiation ([1]; 360 nm, irradiation time 60 min): 0% | Molar composition of a solution of 2',7-bisNvoc-PTX after irradiation ([1]; 360 nm, irradiation time 270 min): 1.7% | Molar composition of a solution of 2',7-bisNvoc-PTX after irradiation ([1]; 360 nm, irradiation time 450 min): 6.0% | Molar composition of a solution of 2',7-bisNvoc-PTX after irradiation ([1]; 360 nm, irradiation time 570 min): 10.6% | Molar composition of a solution of 2',7-bisNvoc-PTX after irradiation ([1]; 360 nm, irradiation time 735 min): 18.5% | Molar composition of a solution of 2',7-bisNvoc-PTX after irradiation ([1]; 360 nm, irradiation time 820 min): 21.2% | Molar composition of a solution of 2',7-bisNvoc-PTX after irradiation ([1]; 360 nm, irradiation time 1585 min): 60.5% | solubility test (appearance of solution) ([2]; 10 µM in 1:1000 DMSO:PIPES buffer (80 mM, pH 6.8), time 1 hr): clear solution | solubility test (appearance of solution) ([2]; 10 µM in 1:1000 DMSO:PIPES buffer (80 mM, pH 6.8), time 8 hrs): clear solution | solubility test (appearance of solution) ([2]; 10 µM in 1:1000 DMSO:PIPES buffer (80 mM, pH 6.8), time 24 hrs): Suspension | solubility test (appearance of solution) ([2]; 10 µM in 1:1000 DMSO:PIPES buffer (80 mM, pH 6.8), time 30 hrs): white precipitate | solubility test (appearance of solution) ([2]; 10 µM in 1:1000 DMSO:PIPES buffer (80 mM, pH 6.8, 2 mM MgCl2, 1 mM EGTA), time 5 min): clear solution | concentration at which cell vitality is significantly reduced (HeLa cells [3]): 0.1 µM | cell morphology / mitosis in microscopy images (HeLa cells [4]; 10 µM): mitosis of HeLa cells was blocked | microtubule staining by Tubulin Tracker (fluorescence CLSM) (HeLa cells [4]; 10 µM): absence of the mitotic spindle stained with Tubulin Tracker | concentration triggering the multiple nuclei pattern (HeLa cells [4]; patterns similar between the compounds (Fig. 6)): 2 nM
